Experimental data as given in patent US4644010A, “Certain β-oxo-α-carbamoylpyrrolepropionitriles” (Ciba-Geigy Corporation, priority 1984, dated 1987).

Assays:
[1] = system: established adjuvant arthritis in the rat; assay: established adjuvant arthritis test; format: in vivo; settings: dose ranging from about 5 to 25 mg/kg/p.o.
Protocol: The established adjuvant arthritis test for anti-arthritic activity is performed essentially as described in Proc. Soc. Biol. Med. 137, 506 (1971).

[2] = system: phenyl-p-benzoquinone-induced writhing in mice; assay: phenyl-p-benzoquinone-induced writhing test for analgesic activity; format: in vivo; settings: mouse, dose ranging from about 1 to 30 mg/kg p.o.
Protocol: The phenyl-p-benzoquinone-induced writhing test for analgesic activity, described in J. Pharmacol. Exp. Therap. 125, 237 (1959) is performed in mice as follows:
Mice previously fasted overnight are treated orally with the test compound dissolved in 0.75% methylcellulose at doses of 1 to 50 mg/kg, or with the vehicle alone, 55 minutes before the induction of the writhing syndrome by i.p. injection of 0.25 ml of a suspension of phenyl-p-benzoquinone (0.03%) in tragacanth (0.4%).
Starting 5 minutes, thereafter, the number of writhing movements provoked by the irritant are counted over an observation period of 10 minutes. The analgesic antinociceptive) ED50 of the test compound is the dose which reduces the mean frequency of writhing movements by 50% in comparison to the controls.

[3] = system: BCG-immunized adjuvant arthritic rat; assay: skin test (delayed hypersensitivity) in the BCG-immunized adjuvant arthritic rat; format: in vivo; settings: 25 mg/kg/p.o.
Protocol: The enhancement of cell-mediated immunity is determined in vivo in the BCG-immunized arthritic rat by measurement of delayed hypersensitivity reaction essentially as described in Current Therapeutic Research 30, S34 (1981).
Charles River male rats weighing 325-400 g are sensitized by intradermal injection into the right hind foot pad with […] per animal of Mycobacterium tuberculosis (Difco) emulsified in Freund's incomplete adjuvant. Animals are immunized with 0.1 ml of BCG vaccine intradermally on day 18 after adjuvant injection. Corn starch suspensions of drugs are administered orally. Control animals are dosed with cornstarch vehicle only. All animals are skin-tested with 10 μg PPD intradermally on day 29 to elicit skin reactions. The diameter of the erythema and induration reaction is measured 24 hours after antigen challenge. An increase in the diameter of the erythema is indicative of enhanced cellular immunity.

[4] = system: proteoglycan matrix of bovine nasal septum cartilage; assay: cartilage-synovium co-culture model of cartilage matrix degradation; format: cell-based; settings: concentration range of about 10^-7 M to 10^-5 M
Protocol: The compounds of the invention are also active in the cartilage-synovium co-culture model of cartilage matrix degradation, indicative of their effectiveness in osteoarthritis. The screen is carried out as follows:
The proteoglycan matrix of bovine nasal septum cartilage is labeled into vitro by incorporation of ^35 S into glycosaminoglycan. Cartilage slices are incubated overnight in a sulfate-free medium containing ^35 S-sodium sulfate. ^35 S-Labeled cartilage slices are co-cultured with normal synovium explants in multiwell tissue culture plates. After 4 days incubation a 100 μl aliquot of medium is counted. Cartilage slices are hydrolyzed and a 100 μl aliquot of cartilage hydrolysate is counted. The percent ^35 S released into the medium is determined and the percent of inhibition of matrix degradation is calculated.

| Compound | activity in the established adjuvant arthritis test [1] | activity in the phenyl-p-benzoquinone test for analgesia [2] | activity in the skin test (immunopotentiating activity) [3] | inhibition of cartilage matrix degradation in vitro [4] |
| --- | --- | --- | --- | --- |
| N#CC(C(=O)Nc1ccc(F)cc1)C(=O)c1ccc[nH]1 (stereo not drawn) [Example 5, β-oxo-α-(4-fluorohenylcarbamoyl)-β-(2-pyrrolyl)-propionitrile] | active | active | – | – |
| N#CC(C(=O)Nc1ccc(Cl)cc1)C(=O)c1ccc[nH]1 (stereo not drawn) [Example 2, β-oxo-α-(4-chlorophenylcarbamoyl)-β-(2-pyrrolyl)propionitrile] | active | active | significant activity | inhibit cartilage matrix degradation |
| N#CC(C(=O)Nc1ccccc1)C(=O)c1ccc[nH]1 (stereo not drawn) [Example 1, β-oxo-α-(phenylcarbamoyl)-β-(2-pyrrolyl)-propionitrile] | active | active | significant activity | inhibit cartilage matrix degradation |
| N#CC(C(=O)Nc1ccc(F)cc1F)C(=O)c1ccc[nH]1 (stereo not drawn) [Example 3, β-oxo-α-(2,4-difluorophenylcarbamoyl)-β-(2-pyrrolyl)-propionitrile] | active | active | – | inhibit cartilage matrix degradation |
